Test results: paper PMC6706930, “A novel oral micellar fenretinide formulation with enhanced bioavailability and antitumour activity against multiple tumours from cancer stem cells” (Journal of Experimental & Clinical Cancer Research : CR, 2019)

Assay: Fecal excretion of 4-HPR and metabolites
Format: in vivo, mice
Design: Fecal excretion, amount: unit not given here
Protocol: The oral pharmacokinetics of Bio-nFeR were investigated in four independent groups of 24 mice, randomized to receive different treatment with the following fenretinide equivalent doses: 10, 50, 100 and 200 mg/Kg. The drug was administered by oral gavage and after treatment, blood samples were taken at 15 and 30 min and at 1, 2, 4, 8/10, 24 and 48 h and collected in heparinized tubes from the retro-orbital plexus of the mice under isoflurane anesthesia. Mice were then sacrificed by cervical dislocation and liver, kidney and brain were removed and immediately frozen in dry-ice for future determination. To obtain plasma, blood was centrifuged at 4000 rpm for 10 min at 4 °C. To evaluate fenretinide and metabolites excretion, urine and faeces were collected over a 0–24 h and 24–48 h periods. The collection was performed in three mice per group of treatment, individually housed into metabolic cages for urine and faeces collection. All the biological samples were stored at − 20 °C until analysis. To compare the absorption of Bio-nFeR to NCI-FeR and to study the bioavailability, another independent groups of 24 mice were randomized to receive an oral dose of 200 mg/Kg of NCI-FeR. Blood samples were taken at the time reported above. Twenty-four hours fractions of urine and faeces were collected in three mice per group of treatment. Plasma and the other biological specimens were stored at − 20 °C until analysis. Chronic study: the oral pharmacokinetic of Bio-nFeR in comparison with NCI-FeR were also investigated after chronic administrations. Mice were divided in three independent groups, randomized to receive a single treatment of 150 mg/Kg or different repeated treatments of 150 mg/Kg, daily for 2 weeks (12 days on and 2 days off), or 100 mg/Kg bi-daily for 1 week (5 days on 2 days off). Bio-nFeR and NCI-FeR were administered by oral gavage, collecting blood samples at 0.5, 1, 2, 4, 8/10 and 24 h, the day of the single treatment and at 0, 1, 2, 4, 8/10, 24 and 48 h after the last dose of both the chronic treatments. The procedures of blood collection, plasma preparation, sacrifice of mice and storing of samples were as reported in acute study. Also during chronic treatment, excretions of fenretinide and metabolites in urine and faeces were determined collecting the specimens in three mice per group, both at the start of treatment and at the end of the repeated administration. All the collected samples were stored at − 20 °C until analysis.
The determination of fenretinide in plasma of mice and the others biological samples was determined according to a method specifically developed and validated for the quantification of fenretinide (4-HPR) based on liquid chromatography-tandem mass spectrometry (LC–MS/MS) (manuscript in preparation). The procedure of sample preparation and quantification can be summarized as follows. 30 μL aliquot of plasma was added with 3 ng of deuterated internal standard (^2H4 4-HPR), deproteinized by mean of 90 μL of acetonitrile and centrifuged 5 min at 13200 rpm at room temperature. The supernatant was recovered and 5 μL injected into a HPLC system (Series 200, Perkin Elmer, MA, USA). Chromatographic separation was achieved on a Gemini-C18 column (50 mm × 2.0 mm, 5 μm particle size; Phenomenex Inc., Torrance, CA, USA) at 32 °C protected with a Security Guard™ ULTRA cartridges C18. The detection obtained by Mass spectrometric detection was carried out on a triple quadrupole API 4000 mass spectrometer (Sciex, MA, USA) equipped with atmospheric pressure chemical ionization source (APCI) operating in positive ion mode monitoring the transitions 392.3 > 283.2 m/z for 4-HPR and 396.3 > 283.2 m/z for the deuterated internal standard. To assay study samples, a calibration curve of six points (range: 1.0–500.00 ng/mL) was prepared in control mouse plasma assessing the precision and the accuracy of the run analyzing at the same time a set of freshly prepared quality controls samples. […]

[1] = 2 wks 1 daily dose 150 mg/kg Bio-nFeR
[2] = 2 wks 1 daily dose 150 mg/kg NCI-FeR
[3] = feces after 24 hours, acute Bio-nFeR 10 mg/kg
[4] = feces after 24 hours, acute Bio-nFeR 50 mg/kg
[5] = feces after 24 hours, acute Bio-nFeR 100 mg/kg
[6] = feces after 24 hours, acute Bio-nFeR 200 mg/kg
[7] = feces after 24 hours, acute NCI-FeR 200 mg/kg
[8] = single admin. 150 mg/kg Bio-nFeR
[9] = single admin. 150 mg/kg NCI-FeR

Fecal excretion, amount [1]	Fecal excretion, percent (in brackets) [1] [%]	Fecal excretion, amount [2]	Fecal excretion, percent (in brackets) [2] [%]	Fecal excretion, amount [3]	Fecal excretion, percent (in brackets) [3] [%]	Fecal excretion, amount [4]	Fecal excretion, percent (in brackets) [4] [%]	Fecal excretion, amount [5]	Fecal excretion, percent (in brackets) [5] [%]	Fecal excretion, amount [6]	Fecal excretion, percent (in brackets) [6] [%]	Fecal excretion, amount [7]	Fecal excretion, percent (in brackets) [7] [%]	Fecal excretion, amount [8]	Fecal excretion, percent (in brackets) [8] [%]	Fecal excretion, amount [9]	Fecal excretion, percent (in brackets) [9] [%]	proportion of Bio-nFeR and NCI-FeR eliminated in faeces (acute treatment at multiple doses and chronic treatment)	SMILES
97.4	4.2	270	7.6	4.7	3.2	38.2	4.0	33.6	1.9	77.4	2.5	153.4	5.5	129.5	6.1	247.1	9.2		CC1=C(/C=C/C(C)=C/C=C/C(C)=C/C(=O)Nc2ccc(O)cc2)C(C)(C)CCC1 [4-HPR, 4-hydroxy (phenyl)retinamide, reference compound]
97.5	4.2	201.1	6.6	47	32.6	253.8	26.5	85.5	4.9	129.8	4.3	115.6	3.9	108.4	5.0	103.7	4.2		CC1=C(/C=C/C(C)=C/C=C/C(C)=C/C(=O)Nc2ccc(O)cc2)C(C)(C)CCC1=O [4-oxo-4-HPR]
0.9	0.0	0.8	0.0	0.03	0.02	0.5	0.05	0.7	0.04	1.2	0.05	0.4	0.02	1.6	0.1	0.4	0.02	less than 0.1%	COc1ccc(NC(=O)\C=C(C)/C=C/C=C(C)\C=C\C2=C(C)CCCC2(C)C)cc1 [MPR]
